Assay results published in patent publication US20220168384A1, “Anti-Bacterial Combination Therapy” (McMaster University, priority 2019, published 2022).
Converted amounts (≈) assume the structure as drawn. “And” between values parts separate entries of the source, which are not always exact repeats. Equal entries are not always repeated. Where two headings read alike, the source gives them in different places.

Legend:
[1] = Chrome azurol S (CAS) plate assay; format: physicochemical; conditions: 5 μl of 2 mg/ml; room temperature 1 h
[2] = test system: methicillin-resistant Staphylococcus aureus USA300; experiment: Thiostrepton susceptibility of S. aureus in MHB versus 10:90; format: cell-based; conditions: both 10:90 medium and MHB
From the text: (§1) The susceptibility of P. aeruginosa PA14, E. coli BW25113, A. baumannii C0286, and S. aureus USA300 was compared in MHB versus 10:90 medium. E. coli lacks FpvAB and is resistant to TS in both media.

[3] = test system: Acinetobacter baumannii clinical isolates; experiment: Clinical isolates testing, A. baumannii; format: cell-based; conditions: 10:90
Description: (§2) Clinical isolates of P. aeruginosa and A. baumannii were inoculated from −80° C. stocks into 200 μL LB broth and grown with shaking at 200 rpm, 16 h, 37° C. in Nunc 96-well plates. The overnight cultures were subcultured (1:25 dilution) into 10:90 and grown with shaking at 200 rpm, 2 h, 37° C. Vehicle controls consisted of 4 μL of DMSO, 144 μL 10:90 and 2 μL of subculture. Sterile controls consisted of 4 μL of DMSO and 146 μL 10:90. […]. The final volume of each well was 150 μL and each checkerboard was repeated at least three times. Plates were incubated with shaking at 200 rpm, 16 h, 37° C. and OD600 was measured (Multiskan Go—Thermo Fisher Scientific). The results were plotted as percent of control (wells containing only DMSO) using Prism (GraphPad).
(§3) Clinical isolates were grown and tested as described in Example 1. Briefly, clinical isolates were inoculated from glycerol stocks stored at −80° C. into Nunc 96-well plates and grown overnight at 37° C., for 16 h with shaking in LB (200 rpm). Overnights were subcultured (1:25) into fresh 10:90 medium and grown for 2 h under the same growth conditions. Subcultures were diluted 1:75 in fresh 10:90. Compounds were diluted 1:75 to obtain the final concentration. DOXY and CLI were added at a final concentration of 1 μg/mL, CO was used at 2 μg/mL, TRO was used at 4 μg/mL, TS was used at 8.3 μg/mL, and DSX was used at 32 μg/mL. Vehicle and sterility controls were included. Plates were incubated overnight with the same conditions. The OD600 was read (Multiscan Go—Thermo Fisher Scientific), analyzed using Excel, and the data plotted using Prism (GraphPad).
(§4) Culture conditions, checkerboard assays using P. aeruginosa PA14 and dose-response assays were performed as described in Example 1. In addition to TS, other thiopeptides tested were siomycin A (SM), thiocillin I (TC), micrococcin P1 (MC), nosiheptide (NH), berninamycin A (BER), and geninthiocin A (GEN). For dose response assays of the combinations conducted in 10:90, DSX concentration was constant at 64 μg/mL.

[4] = test system: P. aeruginosa PA14 and Mar2xT7 transposon mutants; experiment: MIC microbroth dilution assay, thiostrepton susceptibility of PA14 and mutants; format: cell-based, Pseudomonas aeruginosa; conditions: for MIC / IC50: Pseudomonas aeruginosa, VBMM; for IC50: read-out: ICCO
Description: MICs were determined with microbroth dilution assays in Nunc 96-well plates. Vehicle controls consisted of 1:75 dilutions of DMSO in 10:90 inoculated with PA14 or its mutants as described in “Growth Curves” above. Sterile controls consisted of 1:75 dilutions of DMSO in 10:90. Seven serially diluted concentrations of TS—with 17 μg/mL being the highest final concentration—was set up in triplicate. Tests were done with 1:75 dilutions of each TS concentration in 10:90 inoculated with PA14 or its mutants as described in Growth Curves. Plates were sealed to prevent evaporation and incubated with shaking at 200 rpm, 16 h, 37° C. The OD600 of the plates was read (Multiskan Go—Thermo Fisher Scientific) and used to calculate MIC. Growth is proportional to the darkness intensity whereas white indicates no observable growth. The final volume of each well was 150 μL and each experiment was repeated at least three times.
To identify the route of iron-limitation dependent TS entry into P. aeruginosa, the susceptibility of mutants from the ordered PA14 transposon library (15) that had insertions in genes encoding known siderophore receptors, as well as mutants with insertions in uncharacterized OM proteins with homology to siderophore receptors was tested. In VBMM, most mutants had MICs similar to those of the parental strain (Table 1). […]. P. aeruginosa encodes two type I pyoverdine receptors, FpvA and FpvB, with ˜39% amino acid identity (71% similarity). […]. When fpvA was deleted in the fpvB background, the double mutant had similar resistance levels to the fpvA single mutant (Table 1), but complementation of that mutant with fpvB on a low-copy number plasmid increased TS susceptibility (Table 1).

P. aeruginosa PA14 = experiment: Checkerboards pinned to LB agar (bactericidal activity); format: cell-based, Pseudomonas aeruginosa; conditions: overnight 37° C.
Description: Checkerboards were pinned to LB agar plates using a sterile 96 pin tool. Plates were incubated overnight at 37° C. Independent experiments were conducted 3 times and a representative plate is shown.

E. coli BW25113 = experiment: Thiostrepton susceptibility of E. coli in MHB versus 10:90; format: cell-based, Escherichia coli; conditions: 10:90 medium; up to 10 μM (17 μg/ml) TS
From the text: as §1

[5] = test system: P. aeruginosa clinical isolates; experiment: Clinical isolates testing, P. aeruginosa; format: cell-based, Pseudomonas aeruginosa; conditions: Pseudomonas aeruginosa; approximately 1 in 10 of 96 clinical isolates; 10:90
Description: as §2, §3, §4

[6] = PA14, strain chtA::Mar2xT7 (PA4675)
[7] = PA14, strain fithA::Mar2xT7 (PA4516)
[8] = PA14, strain fiuA::Mar2xT7 (PA0470)
[9] = PA14, strain foxA::Mar2xT7 (PA2466)
[10] = PA14, strain fptA::Mar2xT7 (PA4221)
[11] = PA14, strain fpvA fpvB::Mar2xT7 (PA2398, PA4168)
[12] = PA14, strain fpvA fpvB::Mar2xT7 + pUCP20-fpvB
[13] = PA14, strain fpvA fpvB::Mar2xT7 + pUCP20
[14] = PA14, strain fpvA::Mar2xT7 (PA2398)
[15] = PA14, strain fpvB::Mar2xT7 (PA4168)
[16] = PA14, strain hasR::Mar2xT7 (PA3408)
[17] = PA14, strain pfeA::Mar2xT7 (PA2688)
[18] = PA14, strain phuR::Mar2xT7 (PA4710)
[19] = PA14, strain pirA::Mar2xT7 (PA0931)
[20] = PA14, strain piuA::Mar2xT7 (PA4514)
[21] = PA14, strain pvdA::Mar2xT7 (PA2386)

Q: For C=C(NC(=O)C(=C)NC(=O)c1csc(C2=N[C@@H]3c4csc(n4)[C@H]4NC(=O)c5csc(n5)[C@H]([C@](C)(O)[C@@H](C)O)NC(=O)[C@H]5CSC(=N5)/C(=C/C)NC(=O)[C@H]([C@@H](C)O)NC(=O)c5csc(n5)[C@]3(CC2)NC(=O)[C@H](C)NC(=O)C(=C)NC(=O)[C@H](C)NC(=O)[C@H]([C@@H](C)CC)N[C@@H]2C=Cc3c([C@H](C)O)cc(nc3[C@H]2O)C(=O)O[C@@H]4C)n1)C(N)=O [TS, thiostrepton], which “decolorization of CAS agar (iron binding)” value [1] is on record?
A: lack of a color change

Q: What about the “TS concentration inhibiting growth” value [2] of the same compound?
A: < 40 nM

Q: What about the solubility (physchem) of the same compound?
A: 10 µM and 17 µg/mL

Q: What about the “susceptibility of A. baumannii strain C0286” value [3] of the same compound?
A: resistant

Q: What about the activity at 5 µM ([3]; Acinetobacter baumannii, 5 μM TS, 6 of 10 strains, read-out: growth, % of control) of the same compound?
A: ≤ 50%

Q: And the “susceptibility to TS in Mueller-Hinton broth” value ([4]; P. aeruginosa PA14, nutrient-rich MHB versus 10:90)?
A: reduced susceptibility

Q: What about the MIC ([4]; PA14, strain PA14 (wild type)) of the same compound?
A: 0.6 µM (≈ 0.999 µg/mL)

Q: What about the IC50 ([4]; PA14, strain PA14 (wild type)) of the same compound?
A: 0.26 µg/mL (≈ 0.156 µM)

Q: And the MIC ([4]; PA14, strain PA0151::Mar2xT7)?
A: 0.45 µM (≈ 0.749 µg/mL)

Q: And the IC50 ([4]; PA14, strain PA0151::Mar2xT7)?
A: 0.26 µg/mL (≈ 0.156 µM)

Q: And the MIC ([4]; PA14, strain PA1322::Mar2xT7)?
A: 0.41 µM (≈ 0.683 µg/mL)

Q: And the IC50 ([4]; PA14, strain PA1322::Mar2xT7)?
A: 0.26 µg/mL (≈ 0.156 µM)

Q: And the MIC ([4]; PA14, strain PA4837::Mar2xT7)?
A: 0.41 µM (≈ 0.683 µg/mL)

Q: And the IC50 ([4]; PA14, strain PA4837::Mar2xT7)?
A: 0.26 µg/mL (≈ 0.156 µM)

Q: And the MIC [4, 6]?
A: 0.36 µM (≈ 0.599 µg/mL)

Q: And the IC50 [4, 6]?
A: 0.59 µg/mL (≈ 0.354 µM)

Q: And the MIC [4, 7]?
A: 0.5 µM (≈ 0.832 µg/mL)

Q: And the IC50 [4, 7]?
A: 0.26 µg/mL (≈ 0.156 µM)

Q: What about the MIC [4, 8] of the same compound?
A: 0.36 µM (≈ 0.599 µg/mL)

Q: And the IC50 [4, 8]?
A: 0.26 µg/mL (≈ 0.156 µM)

Q: And the MIC [4, 9]?
A: 0.6 µM (≈ 0.999 µg/mL)

Q: What about the IC50 [4, 9] of the same compound?
A: 0.26 µg/mL (≈ 0.156 µM)

Q: What about the MIC [4, 10] of the same compound?
A: 0.45 µM (≈ 0.749 µg/mL)

Q: What about the IC50 [4, 10] of the same compound?
A: 0.26 µg/mL (≈ 0.156 µM)

Q: What about the MIC [4, 11] of the same compound?
A: 7.5 µM (≈ 12.5 µg/mL)

Q: And the IC50 [4, 11]?
A: 6.9 µg/mL (≈ 4.14 µM)

Q: And the MIC [4, 12]?
A: 2.5 µM

Q: And the IC50 [4, 12]?
A: 2.8 µg/mL

Q: And the MIC [4, 13]?
A: 7.5 µM

Q: What about the IC50 [4, 13] of the same compound?
A: 4.2 µg/mL

Q: And the MIC [4, 14]?
A: 7.5 µM (≈ 12.5 µg/mL)

Q: And the IC50 [4, 14]?
A: 3.7 µg/mL (≈ 2.22 µM)

Q: What about the MIC [4, 15] of the same compound?
A: 1.3 µM (≈ 2.16 µg/mL)

Q: And the IC50 [4, 15]?
A: 1.8 µg/mL (≈ 1.08 µM)

Q: And the MIC [4, 16]?
A: 0.6 µM (≈ 0.999 µg/mL)

Q: And the IC50 [4, 16]?
A: 0.35 µg/mL (≈ 0.21 µM)

Q: And the MIC [4, 17]?
A: 0.82 µM (≈ 1.37 µg/mL)

Q: And the IC50 [4, 17]?
A: 0.26 µg/mL (≈ 0.156 µM)

Q: And the MIC [4, 18]?
A: 0.21 µM (≈ 0.35 µg/mL)

Q: What about the IC50 [4, 18] of the same compound?
A: 0.26 µg/mL (≈ 0.156 µM)

Q: What about the MIC [4, 19] of the same compound?
A: 0.6 µM (≈ 0.999 µg/mL)

Q: And the IC50 [4, 19]?
A: 0.35 µg/mL (≈ 0.21 µM)

Q: And the MIC [4, 20]?
A: 0.36 µM (≈ 0.599 µg/mL)

Q: And the IC50 [4, 20]?
A: 0.35 µg/mL (≈ 0.21 µM)

Q: What about the MIC [4, 21] of the same compound?
A: 0.21 µM (≈ 0.35 µg/mL)

Q: What about the IC50 [4, 21] of the same compound?
A: 0.26 µg/mL (≈ 0.156 µM)

Q: And the “mode of activity of compound alone” value (P. aeruginosa PA14)?
A: bacteriostatic

Q: And the growth (E. coli BW25113)?
A: unaffected

Q: What about the MIC [5] of the same compound?
A: ≥ 5 µM
